Source: US20240115569A1, “METHODS FOR BLOCKING HER2 SIGNALING FOR TREATING PULMONARY FIBROSIS” (CEDARS-SINAI MEDICAL CENTER, priority 2021, published 2024)

Assays:
[1] = tested on: IPF; conditions: IPF patients; cited from earlier work
[2] = tested on: NSG mice injected with SEMA7A high IPF fibroblasts; test: Humanized SCID mouse model of IPF; type: in vivo; conditions: assessed on day 63
Method: Humanized SCID mouse model of IPF was generated as previously reported (Trujillo et al., 2010). Female NOD-scid-IL2Rγc−/− (NSG) mice (6 to 8 weeks old) were purchased from the Jackson Laboratory. The NSG mice received single-cell preparations of SEMA7A high and negative IPF lung fibroblasts (0.5×10^6 cells/mouse) via tail vein injection. […] For the anti-ERBB2 antibody studies, mice were injected with IgG1 (InVivoPlus human IgG1 isotype control, Bio X Cell) or anti-HER2 (Pertuzumab, kindly provided by Genentech) twice per week, 100 μg/mouse from day 35 to 63. Lung fibrosis was assessed on day 63 after fibroblast transfer. The left lobe was used for histology and right lobes were used for hydroxyproline assay after right ventricle perfusion to clear the blood in lungs.

[3] = tested on: human lung fibroblasts; test: Fibroblast invasion assay (BioCoat Matrigel Invasion Chamber); type: cell-based; conditions: 24 hours, PDGF-BB chemoattractant
Method: (§1) Fibroblast migration and invasion assays were performed as previously described (Geng et al., 2019; L1 et al., 2011). In brief, fibroblasts were loaded into the top chamber of a Corning BioCoat Control cell culture insert containing a polycarbonate membrane with 8.0 µm pores (for migration) or a BioCoat Matrigel Invasion Chamber (BD Sciences; for invasion). All other settings were the same for the cell migration assay as for the cell invasion assay.
(§2) PDGF-BB (10 ng/ml, Peprotech) was used as a chemoattractant in the bottom chamber. After 24 hours culture at 37° C. with 5% CO2, invasive cells that had passed through the matrigel layer and clung to the bottom of the insert membrane were determined as invasive fibroblasts. Cells remaining in the upper chamber were defined as non-invasive fibroblasts. For quantification of the migration and invasion indices, the membrane filters containing cells were fixed and stained with the Protocol Hema 3 stain set (Thermo Fisher Scientific) and counted in 5 randomly chosen fields per filter from triplicate filters per sample at ×40 magnification. […] The cell migration or the cell invasion index was calculated as the number of cells attached to the bottom of control or Matrigel-coated membranes after 24 hours, normalized to respective control lung fibroblasts.

[4] = tested on: human lung fibroblasts; test: Fibroblast migration assay (BioCoat control insert); type: cell-based; conditions: 24 hours, PDGF-BB chemoattractant
Method: as §1, §2

[5] = tested on: FOXF1; test: Western blot of FOXF1 in IPF lung fibroblasts; type: cell-based, human; conditions: increasing concentration
[6] = tested on: C57BL/6J mice; test: Bleomycin-induced lung fibrosis; type: in vivo, mouse; conditions: 1.25 U/kg bleomycin intratracheal; gavaged every day; 21 days; vs vehicle; trichrome and hydroxyproline
Excerpt: Control animals received saline alone. The tracheostomy site was sutured, and the animals were allowed to recover. […] Mice were euthanized 21 days after bleomycin treatment, and lung tissues were collected for experiments.

[7] = tested on: SEMA7A, F3, and ITGA6; test: Flow cytometry of cell surface markers of invasive fibroblasts; type: cell-based, human; conditions: IPF lung fibroblasts after Lapatinib treatment
Method: Briefly, cells were resuspended in Hank's balanced saline solution supplemented with 2% FBS, 10 mM […] , 0.1 mM EDTA, Antibiotic-Antimycotic. […] 4',6-diamidino-2-phenylindole (DA-PI) was used to discriminate dead cells.

[8] = tested on: SEMA7A; test: Western blot of SEMA7A in IPF lung fibroblasts; type: cell-based, human; conditions: increasing concentration
[9] = tested on: IPF lung fibroblasts; test: qRT-PCR of genes specific to invasive or non-invasive fibroblasts; type: cell-based, human; conditions: IPF lung fibroblasts after Lapatinib treatment
Method: Small interfering RNA (siRNA) knockdown assays were performed using Lipofectamin RNAiMAX Transfection Reagent following the manufacturer's protocol (Thermo Fisher Scientific). Commercial si-RNA used were listed: si-FOXF1 (Santa Cruz Biotechnology, sc-60655), si-CREBRF (Santa Cruz Biotechnology, sc-91839), si-TSC22D1 (Thermo Fisher Scientific, 16708), si-MXI1 (Santa Cruz Biotechnology, sc-35835), si-KLF9 (Santa Cruz Biotechnology, sc-37716), si-NFE2L2 (Santa Cruz Biotechnology, sc-37030), si-HMGA2 (Santa Cruz Biotechnology, sc-37994) si-DPF3 (Santa Cruz Biotechnology, sc-92150) and si-LIN00152 (Dharmacon, SMARTpool: Lincode CYTOR siRNA). Si-FENDRR were synthesized by Integrated DNA Technologies (IDT) (Table 1). RNA was isolated using RNeasy Mini kit (QIAGEN) following the manufacturer's protocol. […] Reverse Transcriptase (Progema) was used for cDNA synthesis. Gene expression was measured relative to the endogenous reference gene GAPDH using the comparative ACT method. The primer sequences used were listed (Table 1).

[10] = tested on: fibroblasts; test: Calcein AM cell viability assay; type: cell-based, human; conditions: Lapatinib treated cells for 24 hours
Method: Cell growth rate of si-CTL and si-FENDRR fibroblasts were measured by IncuCyte ZOOM Live Cell Analysis System (Essen BioScience). The viability of lapatinib-treated fibroblasts or control fibroblasts was examined by Calcein AM Cell Viability Assay Kit (Trevigen).

[11] = different doses of Lapatinib or DMSO

## Cc1ccc(=O)n(-c2ccccc2)c1 [pirfenidone]
[1]
  lung function / fibrosis: neither of these agents improves lung function or reduces fibrosis
  rate of decline in the forced vital capacity: reduce the rate of decline in the forced vital capacity

## Pertuzumab: humanized monoclonal antibody that binds to the extracellular domain II of HER2
[2]; 100 μg/mouse twice per week from day 35 to 63, vs IgG1
  lung fibrosis: significantly decreased lung fibrosis
[3]; Pertuzumab or IgG1
  fibroblast invasion: significantly reduced fibroblast migration and invasion
[4]; Pertuzumab or IgG1
  fibroblast migration: significantly reduced fibroblast migration and invasion

## CS(=O)(=O)CCNCc1ccc(-c2ccc3ncnc(Nc4ccc(OCc5cccc(F)c5)c(Cl)c4)c3c2)o1 [Lapatinib]
[5]
  total protein levels of FOXF1: increased
[6]
  bleomycin-induced lung fibrosis: blunted bleomycin-induced lung fibrosis
[2]; 50 mg/kg every other day from day 35 to day 63, vs vehicle, trichrome and hydroxyproline
  lung fibrosis: significantly decreased lung fibrosis
[7]
  cell surface expression of SEMA7A, F3, and ITGA6: decreased protein levels
[8]
  total protein levels of SEMA7A: decreased
[3]; [11]
  fibroblast invasion: inhibited fibroblast migration and invasion in a dose dependent manner
[9]
  RNA levels of other representative genes specific to invasive or non-invasive fibroblasts: reversed to a non-invasive state
[4]; [11]
  fibroblast migration: inhibited fibroblast migration and invasion in a dose dependent manner
[10]
  fibroblast viability: no effect on fibroblast viability

## COC(=O)c1ccc2c(c1)NC(=O)/C2=C(\Nc1ccc(N(C)C(=O)CN2CCN(C)CC2)cc1)c1ccccc1 [nintedanib]
[1]
  lung function / fibrosis: neither of these agents improves lung function or reduces fibrosis
  rate of decline in the forced vital capacity: reduce the rate of decline in the forced vital capacity
